In patent US11939320B2, “Modulators of the integrated stress pathway” (Calico Life Sciences LLC, priority 2017, dated 2024):
pEC50: −log10 of the molar value.

Test system: HEK293T cells carrying the ATF4 luciferase reporter
Experiment: ATF4-Luc assay (in vitro model of VWMD)
Assay type: cell-based
Conditions: Homo sapiens, HEK-293T; HEK293T cells with ATF4 5'-UTR firefly luciferase reporter; 1 μg/mL tunicamycin; 7 hours; One Glo luminescence
Protocol: In order to test exemplary compounds of the invention in a cellular context, a stable VWMD cell line was first constructed. The ATF4 reporter was prepared by fusing the human full-length ATF4 5′-UTR (NCBI Accession No. BC022088.2) in front of the firefly luciferase (FLuc) coding sequence lacking the initiator methionine as described in Sidrauski et al (eLife 2013). The construct was used to produce recombinant retroviruses using standard methods and the resulting viral supernatant was used to transduce HEK293T cells, which were then subsequently selected with puromycin to generate a stable cell line.
HEK293T cells carrying the ATF4 luciferase reporter were plated on polylysine coated 384-well plates (Greiner Bio-one) at 30,000 cells per well. Cells were treated the next day with 1 μg/mL tunicamycin and 200 nM of a compound of Formula (I) for 7 hours. Luminescence was measured using One Glo (Promega) as specified by the manufacturer. Cells were maintained in DMEM with L-glutamine supplemented with 10% heat-inactivated FBS (Gibco) and Antibiotic-Antimycotic solution (Gibco).
Table 2 below summarizes the EC50 data obtained using the ATF4-Luc assay for exemplary compounds of the invention.

Row | SMILES | pEC50
1 | O=C(COc1ccc(Cl)c(Cl)c1)N[C@H]1CC[C@H](C(=O)NCc2ccc(OC(F)F)cn2)CC1 [Compound 120, (1r,4r)-4-[2-(3,4-dichlorophenoxy)acetamido]-N-{[5-(difluoromethoxy)pyridin-2-yl]methyl}cyclohexane-1-carboxamide] | 7.30 to 8.00
2 | O=C(COc1ccc(Cl)c(F)c1)N[C@H]1CC[C@H](C(=O)NCc2nc3cc(F)c(F)cc3[nH]2)CC1 [Compound 153, (1r,4r)-4-[2-(4-chloro-3-fluorophenoxy)acetamido]-N-[(5,6-difluoro-1H-benzimidazol-2-yl)methyl]cyclohexane-1-carboxamide] | < 5.70
3 | O=C(COc1ccc(Cl)c(Cl)c1)N[C@H]1CC[C@H](C(=O)NCc2ccc(OC(F)F)cc2)CC1 [Compound 104, (1r,4r)-4-[2-(3,4-dichlorophenoxy)acetamido]-N-{[4-(difluoromethoxy)phenyl]methyl}cyclohexane-1-carboxamide] | 6.60 to 7.30
4 | Cc1ccc(CNC(=O)[C@H]2CC[C@H](NC(=O)COc3ccc(Cl)c(Cl)c3)CC2)nc1 [Compound 101, (1r,4r)-4-[2-(3,4-dichlorophenoxy)acetamido]-N-[(5-methylpyridin-2-yl)methyl]cyclohexane-1-carboxamide] | < 5.70
5 | CN(Cc1cccnc1)C(=O)[C@H]1CC[C@H](NC(=O)COc2ccc(Cl)c(Cl)c2)CC1 [Compound 106, (1r,4r)-4-[2-(3,4-dichlorophenoxy)acetamido]-N-methyl-N-[(pyridin-3-yl)methyl]cyclohexane-1-carboxamide] | < 5.70
6 | O=C(NCc1ccc(C(F)(F)F)cn1)[C@@H]1CC[C@@H](NC(=O)[C@H]2CNc3cc(Cl)ccc3O2)CO1 (single isomer, unassigned) [Compound 164] | 6.60 to 7.30
7 | O=C(COc1ccc(Cl)c(Cl)c1)N[C@H]1CC[C@H](C(=O)NCc2ccc(Cl)cn2)CC1 [Compound 175, (1r,4r)-N-[(5-chloropyridin-2-yl)methyl]-4-[2-(3,4-dichlorophenoxy)acetamido]cyclohexane-1-carboxamide] | 6.60 to 7.30
8 | O=C(COc1ccc(Cl)c(F)c1)N[C@@H]1CC[C@@H](C(=O)NCCc2ccc(Cl)cc2)OC1 [Compound 146, (2S,5R)-5-[2-(4-chloro-3-fluorophenoxy)acetamido]-N-[2-(4-chlorophenyl)ethyl]oxane-2-carboxamide] | 6.60 to 7.30
9 | COc1ccc(CNC(=O)[C@H]2CC[C@H](NC(=O)COc3ccc(Cl)c(Cl)c3)CC2)cn1 [Compound 105, (1r,4r)-4-[2-(3,4-dichlorophenoxy)acetamido]-N-[(6-methoxypyridin-3-yl)methyl]cyclohexane-1-carboxamide] | < 5.70
10 | O=C(COc1ccc(Cl)c(F)c1)N[C@H]1CC[C@H](C(=O)NCc2nc3cc(Cl)ccc3[nH]2)CC1 [Compound 150, (1r,4r)-N-[(5-chloro-1H-benzimidazol-2-yl)methyl]-4-[2-(4-chloro-3-fluorophenoxy)acetamido]cyclohexane-1-carboxamide] | 7.30 to 8.00
11 | O=C(COc1ccc(Cl)c(F)c1)N[C@H]1CC[C@H](C(=O)NCc2cnco2)CC1 [Compound 118, (1r,4r)-4-[2-(4-chloro-3-fluorophenoxy)acetamido]-N-[(1,3-oxazol-5-yl)methyl]cyclohexane-1-carboxamide] | < 5.70
12 | O=C(COc1ccc(Cl)c(F)c1)N[C@H]1CC[C@H](C(=O)N2CC(c3ccc(Cl)cc3)C2)CC1 [Compound 129, 2-(4-chloro-3-fluorophenoxy)-N-{(1r,4r)-4-[3-(4-chlorophenyl)azetidine-1-carbonyl]cyclohexyl}acetamide] | > 8.00
13 | O=C(COc1ccc(Cl)c(F)c1)N[C@H]1CC[C@H](C(=O)NCc2ccc(C(F)F)cn2)CC1 [Compound 187, (1r,4r)-4-[2-(4-chloro-3-fluorophenoxy)acetamido]-N-{[5-(difluoromethyl)pyridin-2-yl]methyl}cyclohexane-1-carboxamide] | 7.30 to 8.00
14 | O=C(N[C@@H]1CC[C@@H](C(=O)NCc2ccc(C(F)(F)F)cn2)OC1)C1CNc2cc(Cl)ccc2O1 (mixture of isomers) [Compound 165, 6-chloro-N-[(3R,6S)-6-({[5-(trifluoromethyl)pyridin-2-yl]methyl}carbamoyl)oxan-3-yl]-3,4-dihydro-2H-1,4-benzoxazine-2-carboxamide] | 6.60 to 7.30
15 | O=C(COc1ccc(Cl)c(F)c1)N[C@@H]1CC[C@@H](C(=O)NCc2cnc(C(F)(F)F)nc2)OC1 [Compound 139, (2S,5R)-5-[2-(4-chloro-3-fluorophenoxy)acetamido]-N-{[2-(trifluoromethyl)pyrimidin-5-yl]methyl}oxane-2-carboxamide] | 6.30 to 6.60
16 | O=C(COc1ccc(Cl)c(F)c1)N[C@H]1CC[C@H](C(=O)NCc2ccc(C(F)(F)F)cn2)OC1 [Compound 159, (2R,5S)-5-[2-(4-chloro-3-fluorophenoxy)acetamido]-N-{[5-(trifluoromethyl)pyridin-2-yl]methyl}oxane-2-carboxamide] | 7.30 to 8.00
17 | O=C(COc1ccc(Cl)c(F)c1)N[C@H]1CC[C@H](C(=O)NCc2cc(C(F)(F)F)ccn2)CC1 [Compound 171, (1r,4r)-4-[2-(4-chloro-3-fluorophenoxy)acetamido]-N-{[4-(trifluoromethyl)pyridin-2-yl]methyl}cyclohexane-1-carboxamide] | 6.60 to 7.30
18 | O=C(COc1ccc(F)c(F)c1)N[C@H]1CC[C@H](C(=O)NCc2nc3cc(Cl)ccc3[nH]2)CC1 [Compound 149, (1r,4r)-N-[(5-chloro-1H-benzimidazol-2-yl)methyl]-4-[2-(3,4-difluorophenoxy)acetamido]cyclohexane-1-carboxamide] | 6.60 to 7.30
19 | O=C(COc1ccc(Cl)c(F)c1)N[C@H]1CC[C@H](C(=O)N2Cc3ccc(Cl)cc3C2)CC1 [Compound 132, N-[(1r,4r)-4-(5-chloro-1,3-dihydro-2H-isoindole-2-carbonyl)cyclohexyl]-2-(4-chloro-3-fluorophenoxy)acetamide] | 7.30 to 8.00
20 | O=C(COc1ccc(Cl)c(F)c1)N[C@@H]1CC[C@@H](C(=O)NCCOc2ccc(Cl)cc2)OC1 [Compound 137, (2S,5R)-5-[2-(4-chloro-3-fluorophenoxy)acetamido]-N-[2-(4-chlorophenoxy)ethyl]oxane-2-carboxamide] | 7.30 to 8.00
21 | O=C(COc1ccc(Cl)c(F)c1)N[C@@H]1CC[C@@H](C(=O)NCc2nc3cc(F)c(F)cc3[nH]2)OC1 [Compound 156, (2S,5R)-5-[2-(4-chloro-3-fluorophenoxy)acetamido]-N-[(5,6-difluoro-1H-benzimidazol-2-yl)methyl]oxane-2-carboxamide] | 6.60 to 7.30
22 | O=C(COc1ccc(Cl)c(F)c1)N[C@@H]1CC[C@@H](C(=O)N2CCC(c3ccc(Cl)cc3)C2)OC1 (stereo partly drawn) [Compound 143, 2-(4-chloro-3-fluorophenoxy)-N-{(3R,6S)-6-[3-(4-chlorophenyl)pyrrolidine-1-carbonyl]oxan-3-yl}acetamide] | 5.70 to 6.30
23 | O=C(COc1ccc(C(F)(F)F)nc1)N[C@H]1CC[C@H](C(=O)NCc2nc3cc(Cl)ccc3[nH]2)CC1 [Compound 147, (1r,4r)-N-[(5-chloro-1H-benzimidazol-2-yl)methyl]-4-(2-{[6-(trifluoromethyl)pyridin-3-yl]oxy}acetamido)cyclohexane-1-carboxamide] | < 5.70
24 | O=C(COc1ccc(Cl)c(F)c1)N[C@@H]1CC[C@@H](C(=O)NCc2ccc(C(F)(F)F)cc2)OC1 [Compound 158, (2S,5R)-5-[2-(4-chloro-3-fluorophenoxy)acetamido]-N-{[4-(trifluoromethyl)phenyl]methyl}oxane-2-carboxamide] | 6.60 to 7.30
25 | O=C(COc1ccc(Cl)c(F)c1)N[C@@H]1CC[C@@H](C(=O)Nc2nccc(-c3ccc(Cl)c(F)c3)n2)OC1 [Compound 145, (2S,5R)-5-[2-(4-chloro-3-fluorophenoxy)acetamido]-N-[4-(4-chloro-3-fluorophenyl)pyrimidin-2-yl]oxane-2-carboxamide] | 5.70 to 6.30
26 | O=C(COc1ccc(Cl)c(F)c1)N[C@H]1CC[C@@H](C(=O)N2CC(c3ccc(Cl)cc3)C2)CC1 [Compound 133, 2-(4-chloro-3-fluorophenoxy)-N-{(1s,4s)-4-[3-(4-chlorophenyl)azetidine-1-carbonyl]cyclohexyl}acetamide] | < 5.70
27 | O=C(COc1ccc(Cl)c(F)c1)N[C@@H]1CC[C@@H](C(=O)N2CC(c3ccc(C(F)(F)F)cc3)C2)OC1 [Compound 134, 2-(4-chloro-3-fluorophenoxy)-N-[(3R,6S)-6-{3-[4-(trifluoromethyl)phenyl]azetidine-1-carbonyl}oxan-3-yl]acetamide] | > 8.00
28 | O=C(COc1ccc(Cl)c(F)c1)N[C@H]1CC[C@H](C(=O)N2CCC(c3ccc(Cl)cc3)CC2)CC1 [Compound 128, 2-(4-chloro-3-fluorophenoxy)-N-{(1r,4r)-4-[4-(4-chlorophenyl)piperidine-1-carbonyl]cyclohexyl}acetamide] | < 5.70
29 | O=C(COc1ccc(Cl)c(F)c1)N[C@H]1CC[C@H](C(=O)NCc2ncco2)CC1 [Compound 117, (1r,4r)-4-[2-(4-chloro-3-fluorophenoxy)acetamido]-N-[(1,3-oxazol-2-yl)methyl]cyclohexane-1-carboxamide] | < 5.70
30 | O=C(COc1ccc(Cl)c(Cl)c1)N[C@H]1CC[C@H](C(=O)NCc2nc3cc(F)c(F)cc3[nH]2)CC1 [Compound 152, (1r,4r)-4-[2-(3,4-dichlorophenoxy)acetamido]-N-[(5,6-difluoro-1H-benzimidazol-2-yl)methyl]cyclohexane-1-carboxamide] | < 5.70
